For two molecules, residual kinase activity results are on record in publication PMC11167047 (Cell Death Discovery, 2024).

Molecules are shown by their SMILES.

Holding throughout (experiment): kinome screen (33PanQinase)
Assay type in all cases: biochemical

In one assay the target is T1, CDC42BPB (Homo sapiens, UniProt Q9Y5S2).
T1 construct: purchased Reaction Biology Europe GmbH (formerly ProQinase)
The procedure:
(§1) The Kinome Screening was performed by Reaction Biology Europe GmbH (http://reactionbiology.com; Freiburg i. Br., Germany).

A further assay has as its target T2, CDK1/CycB1 (Homo sapiens, UniProt P06493).
T2 construct: purchased Reaction Biology Europe GmbH (formerly ProQinase)
How it is done:
as §1

The target in a further assay is T3, GSK3β (Homo sapiens, UniProt P49841).
T3 construct: purchased Reaction Biology Europe GmbH (formerly ProQinase)
T3 sequence (P49841 whole entry): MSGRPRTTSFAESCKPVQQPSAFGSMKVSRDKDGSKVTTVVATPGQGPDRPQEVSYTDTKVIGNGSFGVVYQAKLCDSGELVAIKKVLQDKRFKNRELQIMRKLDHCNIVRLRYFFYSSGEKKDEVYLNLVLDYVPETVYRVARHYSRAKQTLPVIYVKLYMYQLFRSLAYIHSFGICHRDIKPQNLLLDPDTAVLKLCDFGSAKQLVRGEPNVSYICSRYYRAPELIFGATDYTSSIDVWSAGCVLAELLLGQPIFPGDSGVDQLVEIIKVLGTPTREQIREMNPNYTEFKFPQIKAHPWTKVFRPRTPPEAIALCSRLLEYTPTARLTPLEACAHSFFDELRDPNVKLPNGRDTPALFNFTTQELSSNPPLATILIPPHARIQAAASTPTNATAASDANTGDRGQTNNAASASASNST
The procedure: as §1

In the next assay the target is T4, LIMK2 (Homo sapiens, UniProt P53671).
T4 construct: purchased Reaction Biology Europe GmbH (formerly ProQinase)
T4 sequence (P53671 whole entry): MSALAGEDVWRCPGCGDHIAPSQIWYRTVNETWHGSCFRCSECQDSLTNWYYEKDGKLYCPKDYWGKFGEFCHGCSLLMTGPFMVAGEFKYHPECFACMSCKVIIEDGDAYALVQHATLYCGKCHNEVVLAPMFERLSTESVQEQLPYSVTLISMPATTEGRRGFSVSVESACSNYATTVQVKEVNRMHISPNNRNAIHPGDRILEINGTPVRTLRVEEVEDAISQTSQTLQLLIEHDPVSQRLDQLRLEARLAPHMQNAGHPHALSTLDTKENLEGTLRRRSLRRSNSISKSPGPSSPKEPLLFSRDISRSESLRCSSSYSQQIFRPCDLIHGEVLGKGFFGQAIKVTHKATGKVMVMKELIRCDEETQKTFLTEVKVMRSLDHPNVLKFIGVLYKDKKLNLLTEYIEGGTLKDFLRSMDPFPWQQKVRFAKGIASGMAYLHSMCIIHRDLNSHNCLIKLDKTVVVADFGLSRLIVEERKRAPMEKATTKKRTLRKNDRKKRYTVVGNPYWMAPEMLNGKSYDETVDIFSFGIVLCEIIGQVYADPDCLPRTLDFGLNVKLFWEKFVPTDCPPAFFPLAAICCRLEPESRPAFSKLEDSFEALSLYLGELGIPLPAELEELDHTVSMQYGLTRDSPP
The procedure:
as §1

Another assay has as its target T5, MARK1 (Homo sapiens, UniProt Q9P0L2).
T5 construct: purchased Reaction Biology Europe GmbH (formerly ProQinase)
The procedure:
as §1

Another assay has as its target T6, NEK2 (Homo sapiens, UniProt P51955).
T6 construct: purchased Reaction Biology Europe GmbH (formerly ProQinase)
T6 sequence (P51955 1-445): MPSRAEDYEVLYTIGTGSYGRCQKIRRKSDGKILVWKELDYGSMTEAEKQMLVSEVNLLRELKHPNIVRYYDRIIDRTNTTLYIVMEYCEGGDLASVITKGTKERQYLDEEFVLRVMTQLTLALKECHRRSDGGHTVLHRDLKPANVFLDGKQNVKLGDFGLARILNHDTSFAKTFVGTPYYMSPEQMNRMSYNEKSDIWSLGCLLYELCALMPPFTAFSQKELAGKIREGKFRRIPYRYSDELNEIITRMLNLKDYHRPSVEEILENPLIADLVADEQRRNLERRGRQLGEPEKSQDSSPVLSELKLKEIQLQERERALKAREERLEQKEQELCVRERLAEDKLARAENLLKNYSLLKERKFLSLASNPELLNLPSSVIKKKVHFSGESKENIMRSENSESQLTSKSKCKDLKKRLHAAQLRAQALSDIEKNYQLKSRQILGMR
How it is done: as §1

The next assay deals with T7, RIPK4 (Homo sapiens, UniProt P57078).
T7 construct: purchased Reaction Biology Europe GmbH (formerly ProQinase)
T7 sequence (P57078 1-832): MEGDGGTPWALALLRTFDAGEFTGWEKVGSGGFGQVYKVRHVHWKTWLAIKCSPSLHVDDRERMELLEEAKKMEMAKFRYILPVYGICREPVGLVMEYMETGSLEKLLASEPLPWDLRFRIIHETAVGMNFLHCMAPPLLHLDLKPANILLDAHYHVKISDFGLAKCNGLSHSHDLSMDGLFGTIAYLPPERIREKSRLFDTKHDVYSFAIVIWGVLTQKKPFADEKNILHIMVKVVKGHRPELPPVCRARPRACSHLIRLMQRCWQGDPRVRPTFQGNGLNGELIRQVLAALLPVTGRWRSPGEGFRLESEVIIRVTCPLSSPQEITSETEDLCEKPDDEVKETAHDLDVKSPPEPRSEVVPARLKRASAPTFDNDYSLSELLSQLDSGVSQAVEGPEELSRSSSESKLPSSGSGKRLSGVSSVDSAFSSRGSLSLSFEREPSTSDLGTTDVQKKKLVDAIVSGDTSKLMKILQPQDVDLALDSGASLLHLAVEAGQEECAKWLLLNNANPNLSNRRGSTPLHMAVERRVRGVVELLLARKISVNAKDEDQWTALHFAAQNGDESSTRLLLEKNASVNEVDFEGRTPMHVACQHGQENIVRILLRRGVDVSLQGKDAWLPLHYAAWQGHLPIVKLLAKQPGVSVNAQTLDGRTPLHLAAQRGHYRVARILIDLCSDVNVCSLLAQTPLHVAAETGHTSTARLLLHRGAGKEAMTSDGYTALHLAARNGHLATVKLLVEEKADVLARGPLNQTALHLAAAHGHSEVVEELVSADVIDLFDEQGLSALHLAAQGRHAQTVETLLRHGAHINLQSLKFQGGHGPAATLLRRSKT
The procedure: as §1

In the next assay the target is T8, RPS6KA1 (Homo sapiens, UniProt Q15418).
T8 construct: purchased Reaction Biology Europe GmbH (formerly ProQinase)
T8 sequence (Q15418 whole entry): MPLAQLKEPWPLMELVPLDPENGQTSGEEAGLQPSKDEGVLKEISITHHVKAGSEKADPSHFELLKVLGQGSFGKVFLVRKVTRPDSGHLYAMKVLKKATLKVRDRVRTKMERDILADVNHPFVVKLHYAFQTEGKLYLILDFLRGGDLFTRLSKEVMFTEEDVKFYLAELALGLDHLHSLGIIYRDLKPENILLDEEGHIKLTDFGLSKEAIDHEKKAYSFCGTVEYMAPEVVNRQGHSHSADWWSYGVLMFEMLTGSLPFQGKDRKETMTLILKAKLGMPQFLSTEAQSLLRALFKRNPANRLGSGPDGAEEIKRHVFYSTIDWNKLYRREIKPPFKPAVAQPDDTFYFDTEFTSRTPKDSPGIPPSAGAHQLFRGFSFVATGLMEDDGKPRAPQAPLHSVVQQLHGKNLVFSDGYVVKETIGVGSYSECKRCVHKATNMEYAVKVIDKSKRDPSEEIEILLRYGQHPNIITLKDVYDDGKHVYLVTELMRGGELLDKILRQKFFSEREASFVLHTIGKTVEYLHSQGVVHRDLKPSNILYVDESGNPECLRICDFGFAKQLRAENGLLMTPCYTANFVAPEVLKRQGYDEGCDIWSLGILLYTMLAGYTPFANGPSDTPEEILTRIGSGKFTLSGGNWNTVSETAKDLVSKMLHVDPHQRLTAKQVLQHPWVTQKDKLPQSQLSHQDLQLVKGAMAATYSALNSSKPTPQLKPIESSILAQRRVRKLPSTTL
The procedure: as §1

A further assay addresses T9, SRPK2 (Homo sapiens, UniProt P78362).
T9 construct: purchased Reaction Biology Europe GmbH (formerly ProQinase)
How it is done: as §1

A further assay addresses T10, TAOK3 (Homo sapiens, UniProt Q9H2K8).
T10 construct: purchased Reaction Biology Europe GmbH (formerly ProQinase)
T10 sequence (Q9H2K8 1-898): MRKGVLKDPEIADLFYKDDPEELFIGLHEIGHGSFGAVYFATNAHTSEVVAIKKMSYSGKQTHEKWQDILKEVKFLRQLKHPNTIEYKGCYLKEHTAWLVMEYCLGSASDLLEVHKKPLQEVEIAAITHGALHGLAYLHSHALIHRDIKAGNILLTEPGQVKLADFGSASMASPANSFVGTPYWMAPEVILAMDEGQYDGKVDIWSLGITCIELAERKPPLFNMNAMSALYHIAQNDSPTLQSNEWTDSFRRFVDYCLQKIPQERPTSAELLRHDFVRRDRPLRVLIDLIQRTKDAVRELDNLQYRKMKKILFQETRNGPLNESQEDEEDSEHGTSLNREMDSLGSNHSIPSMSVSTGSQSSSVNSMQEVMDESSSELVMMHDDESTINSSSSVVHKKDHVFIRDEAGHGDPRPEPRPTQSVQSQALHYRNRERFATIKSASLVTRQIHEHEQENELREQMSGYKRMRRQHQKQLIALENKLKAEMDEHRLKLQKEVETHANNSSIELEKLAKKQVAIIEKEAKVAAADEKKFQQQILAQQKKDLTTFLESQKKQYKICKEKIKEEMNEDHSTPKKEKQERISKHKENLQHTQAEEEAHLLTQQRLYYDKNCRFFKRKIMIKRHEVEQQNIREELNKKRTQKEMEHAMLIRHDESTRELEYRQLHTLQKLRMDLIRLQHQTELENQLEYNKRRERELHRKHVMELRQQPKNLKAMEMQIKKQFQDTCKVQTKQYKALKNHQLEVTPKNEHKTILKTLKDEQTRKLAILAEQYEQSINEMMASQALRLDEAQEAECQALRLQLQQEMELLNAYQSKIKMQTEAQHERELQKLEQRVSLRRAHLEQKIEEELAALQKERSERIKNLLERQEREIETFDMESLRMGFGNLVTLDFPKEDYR
How it is done:
as §1

T5 sequence (Q9P0L2 whole entry): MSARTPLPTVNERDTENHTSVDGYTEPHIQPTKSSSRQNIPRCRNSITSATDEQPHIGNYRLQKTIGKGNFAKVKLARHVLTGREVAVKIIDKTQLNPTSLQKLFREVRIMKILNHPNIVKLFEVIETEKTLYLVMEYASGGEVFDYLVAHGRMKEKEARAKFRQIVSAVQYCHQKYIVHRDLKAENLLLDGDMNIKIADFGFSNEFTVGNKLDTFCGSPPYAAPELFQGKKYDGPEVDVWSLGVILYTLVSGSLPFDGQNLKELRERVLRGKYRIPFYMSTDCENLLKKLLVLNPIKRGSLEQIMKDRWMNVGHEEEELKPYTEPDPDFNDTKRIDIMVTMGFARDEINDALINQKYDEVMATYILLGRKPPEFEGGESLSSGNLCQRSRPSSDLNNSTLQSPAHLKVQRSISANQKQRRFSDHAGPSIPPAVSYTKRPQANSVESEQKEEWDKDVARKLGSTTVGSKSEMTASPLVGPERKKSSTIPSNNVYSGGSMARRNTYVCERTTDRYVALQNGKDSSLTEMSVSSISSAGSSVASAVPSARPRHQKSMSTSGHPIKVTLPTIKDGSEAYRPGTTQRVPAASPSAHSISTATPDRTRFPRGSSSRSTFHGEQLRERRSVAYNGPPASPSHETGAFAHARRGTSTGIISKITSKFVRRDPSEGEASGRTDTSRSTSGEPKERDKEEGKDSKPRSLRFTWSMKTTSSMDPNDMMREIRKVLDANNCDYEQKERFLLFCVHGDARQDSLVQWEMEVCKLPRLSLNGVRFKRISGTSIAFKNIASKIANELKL
T9 sequence (P78362 whole entry): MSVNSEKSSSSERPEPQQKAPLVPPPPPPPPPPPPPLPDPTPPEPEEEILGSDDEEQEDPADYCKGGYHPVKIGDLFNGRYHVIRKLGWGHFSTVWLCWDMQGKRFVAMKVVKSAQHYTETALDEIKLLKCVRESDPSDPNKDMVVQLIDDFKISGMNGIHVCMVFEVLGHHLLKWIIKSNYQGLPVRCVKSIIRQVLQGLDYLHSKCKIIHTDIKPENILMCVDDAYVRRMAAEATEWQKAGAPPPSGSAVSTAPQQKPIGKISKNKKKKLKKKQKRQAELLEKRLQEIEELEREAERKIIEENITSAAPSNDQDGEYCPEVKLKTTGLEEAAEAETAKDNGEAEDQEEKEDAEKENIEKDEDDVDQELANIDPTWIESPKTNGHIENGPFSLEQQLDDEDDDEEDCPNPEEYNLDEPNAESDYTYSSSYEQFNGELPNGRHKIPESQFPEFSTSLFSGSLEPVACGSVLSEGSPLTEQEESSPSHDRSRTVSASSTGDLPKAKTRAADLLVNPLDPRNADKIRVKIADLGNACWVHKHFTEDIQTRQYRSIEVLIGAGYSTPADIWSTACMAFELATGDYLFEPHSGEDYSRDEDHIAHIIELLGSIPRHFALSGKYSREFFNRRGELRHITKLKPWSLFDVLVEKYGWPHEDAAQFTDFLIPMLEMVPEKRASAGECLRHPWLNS
T1 sequence (Q9Y5S2 whole entry): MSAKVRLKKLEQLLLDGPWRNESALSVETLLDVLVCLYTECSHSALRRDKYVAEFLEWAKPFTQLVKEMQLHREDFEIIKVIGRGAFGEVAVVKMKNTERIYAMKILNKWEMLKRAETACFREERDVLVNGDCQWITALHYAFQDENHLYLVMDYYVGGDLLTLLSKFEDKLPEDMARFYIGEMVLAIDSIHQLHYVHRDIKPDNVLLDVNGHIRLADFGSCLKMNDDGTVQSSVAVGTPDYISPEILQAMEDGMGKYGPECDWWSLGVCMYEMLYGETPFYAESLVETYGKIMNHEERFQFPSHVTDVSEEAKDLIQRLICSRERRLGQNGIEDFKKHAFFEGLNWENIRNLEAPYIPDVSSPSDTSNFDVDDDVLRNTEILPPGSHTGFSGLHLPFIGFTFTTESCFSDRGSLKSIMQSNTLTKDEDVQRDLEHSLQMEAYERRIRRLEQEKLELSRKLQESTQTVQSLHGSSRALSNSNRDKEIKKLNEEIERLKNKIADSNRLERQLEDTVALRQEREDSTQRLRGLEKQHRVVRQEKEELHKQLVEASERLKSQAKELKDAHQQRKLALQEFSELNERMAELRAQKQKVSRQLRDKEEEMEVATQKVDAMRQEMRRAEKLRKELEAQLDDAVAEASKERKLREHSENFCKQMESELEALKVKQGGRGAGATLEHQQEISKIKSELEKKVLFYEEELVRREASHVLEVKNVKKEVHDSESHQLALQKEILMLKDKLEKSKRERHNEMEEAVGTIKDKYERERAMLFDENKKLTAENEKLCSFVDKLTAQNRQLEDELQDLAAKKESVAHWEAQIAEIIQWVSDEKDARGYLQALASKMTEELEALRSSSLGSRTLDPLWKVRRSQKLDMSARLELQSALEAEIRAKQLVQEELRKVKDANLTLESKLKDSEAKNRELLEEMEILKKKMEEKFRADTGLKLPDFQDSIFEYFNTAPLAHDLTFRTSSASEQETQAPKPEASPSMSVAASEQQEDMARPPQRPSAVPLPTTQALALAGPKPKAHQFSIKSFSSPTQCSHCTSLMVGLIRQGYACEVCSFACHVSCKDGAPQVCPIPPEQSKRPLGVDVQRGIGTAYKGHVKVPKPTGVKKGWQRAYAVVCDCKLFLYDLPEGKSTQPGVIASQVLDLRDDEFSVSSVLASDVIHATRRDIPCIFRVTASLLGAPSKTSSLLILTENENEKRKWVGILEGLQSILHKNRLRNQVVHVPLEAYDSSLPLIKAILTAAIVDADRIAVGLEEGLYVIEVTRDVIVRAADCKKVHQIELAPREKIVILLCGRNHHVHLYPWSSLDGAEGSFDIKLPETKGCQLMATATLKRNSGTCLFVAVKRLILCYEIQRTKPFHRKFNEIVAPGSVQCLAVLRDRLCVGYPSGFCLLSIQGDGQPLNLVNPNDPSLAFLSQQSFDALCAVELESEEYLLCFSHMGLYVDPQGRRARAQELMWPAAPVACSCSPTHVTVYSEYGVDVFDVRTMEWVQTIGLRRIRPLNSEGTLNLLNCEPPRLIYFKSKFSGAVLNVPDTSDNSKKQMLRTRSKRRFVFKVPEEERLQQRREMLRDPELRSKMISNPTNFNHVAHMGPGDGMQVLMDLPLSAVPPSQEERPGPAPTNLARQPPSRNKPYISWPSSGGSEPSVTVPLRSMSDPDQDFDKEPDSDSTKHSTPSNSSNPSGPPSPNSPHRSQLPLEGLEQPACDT

For `COc1ccnc2[nH]cc(-c3cc(N)nc(N)c3)c12` [meriolin 16], the residual kinase activity on CDC42BPB (0.03 µM) is 37 % of control; on CDC42BPB (0.3 µM), 2 % of control; on CDK1/CycB1 (0.03 µM) it was 29 % of control; on CDK1/CycB1 (0.3 µM) it was 5 % of control; at GSK3β (0.03 µM), 80 % of control; at GSK3β (0.3 µM) it was 66 % of control. Moreover, the residual kinase activity at LIMK2 (0.03 µM) is on record as 106 % of control; at LIMK2 (0.3 µM) it was 101 % of control; on MARK1 (0.03 µM), 121 % of control; on MARK1 (0.3 µM), 101 % of control; on NEK2 (0.03 µM) it was 103 % of control; on NEK2 (0.3 µM), 96 % of control. Moreover, the residual kinase activity is 94 % of control at RIPK4 (0.03 µM); 75 % of control on RIPK4 (0.3 µM); 46 % of control at RPS6KA1 (0.03 µM); 22 % of control on RPS6KA1 (0.3 µM); 93 % of control at SRPK2 (0.03 µM); 91 % of control at SRPK2 (0.3 µM). Further, the residual kinase activity is 111 % of control on TAOK3 (0.03 µM) and 91 % of control on TAOK3 (0.3 µM).
Consider `c1ccc(CNc2cc(-c3c[nH]c4ncccc34)ccn2)cc1` [meriolin 36], for which the residual kinase activity is on record as 0 % of control on CDC42BPB (0.3 µM); 0 % of control on CDC42BPB (3 µM); 4 % of control on CDK1/CycB1 (0.3 µM); 1 % of control on CDK1/CycB1 (3 µM); 18 % of control at GSK3β (0.3 µM); 2 % of control at GSK3β (3 µM). Also, the residual kinase activity at LIMK2 (0.3 µM) was 70 % of control; at LIMK2 (3 µM), 27 % of control; on MARK1 (0.3 µM), 90 % of control; at MARK1 (3 µM), 43 % of control; at NEK2 (0.3 µM), 95 % of control; at NEK2 (3 µM) it was 72 % of control. The residual kinase activity is 88 % of control at RIPK4 (0.3 µM); 45 % of control at RIPK4 (3 µM); 20 % of control on RPS6KA1 (0.3 µM); 10 % of control at RPS6KA1 (3 µM); 87 % of control at SRPK2 (0.3 µM); 55 % of control at SRPK2 (3 µM). Further, the residual kinase activity at TAOK3 (0.3 µM) is listed as 44 % of control; on TAOK3 (3 µM), 6 % of control.
